Assay results reported in the NIST ThermoML archive (doi:10.1016/j.jct.2009.05.018).
± gives the expanded uncertainty stated by the source.

Experiment: molar enthalpy of vaporization or sublimation
Conditions: 298.15 K, Calvet microcalorimetry

SMILES: Cc1cc2ccccc2[nH]1 [2-methylindole]
- molar enthalpy (Crystal): 21.2 ± 1.15 kcal/mol

SMILES: Cn1ccc2ccccc21 [1-methylindole]
- molar enthalpy (Liquid): 14.9 ± 0.765 kcal/mol

SMILES: Cc1c[nH]c2ccccc12 [3-methyl-1H-indole]
- molar enthalpy (Crystal): 21.6 ± 0.908 kcal/mol
